These results are taken from patent publication US20140162875A1, “N-Thio-Anthranilamide Compounds and Their Use as Pesticides” (BASF SE, priority 2011, published 2014).

What all share (format): in vivo
The subject of data set [1] is Cowpea Aphid (Aphis Craccivora). Put plainly: Cowpea aphid spray test on potted cowpea plants. The settings on record: sprayed cowpea plants, assessed after 72 hours, read-out: mortality in comparison with untreated controls. The method, then: (§1) The active compound was dissolved at the desired concentration in a mixture of 1:1 (vol:vol) distilled water:acetone. Surfactant (Alkamuls® EL 620) is added at a rate of 0.1% (vol/vol). The test solution was prepared at the day of use.
Potted cowpea plants were colonized with approximately 50-100 aphids of various stages by manually transferring a leaf tissue cut from infested plant 24 hours before application. Plants were sprayed after the pest population has been recorded. Treated plants were maintained on light carts at about 28° C. Percent mortality was assessed after 72 hours.

For data set [2], the system named is Diamond Back Moth (Plutella Xylostella). Put plainly: Diamond back moth cabbage leaf dip test. The settings on record: foliar, dipped cabbage leaves, 3rd instar larvae, 72 hours after treatment, read-out: mortality in comparison with untreated controls. The method, then: as §1
Leaves of cabbage were dipped in test solution and air-dried. Treated leaves were placed in petri dishes lined with moist filter paper and inoculated with ten 3rd instar larvae. Mortality was recorded 72 hours after treatment. Feeding damages were also recorded using a scale of 0-100%.

For data set [3], the system named is Mediterranean fruitfly (Ceratitis capitata). Description: Mediterranean fruitfly microtiter plate insect diet test. The settings on record: 120 h, egg and larval mortality after 5 days, read-out: mortality in comparison with untreated controls. The method, then: For evaluating control of Mediterranean fruitfly (Ceratitis capitata) the test unit consisted of microtiter plates containing an insect diet and 50-80 C. capitata eggs.
(§2) The compounds were formulated using a solution containing 75% v/v water and 25% v/v DMSO. Different concentrations of formulated compounds were sprayed onto the insect diet at 5 μl, using a custom built micro atomizer, at two replications.
After application, microtiter plates were incubated at about 28±1° C. and about 80±5% relative humidity for 5 days. Egg and larval mortality was then visually assessed.

The test system of data set [4] is Orchid Thrips (Dichromothrips Corbetti). Put plainly: Orchid thrips floral-immersion test. To be noted: adult thrips on dipped orchid flowers, 72 hours after treatment, read-out: mortality in comparison with untreated controls. As for the experimental part:
Dichromothrips corbetti adults used for bioassay are obtained from a colony maintained continuously under laboratory conditions. For testing purposes, the test compound was diluted in a 1:1 mixture of acetone:water (vol:vol), plus 0.01% vol/vol Alkamuls® EL 620 surfactant.
Thrips potency of each compound was evaluated by using a floral-immersion technique. Plastic petri dishes were used as test arenas. All petals of individual, intact orchid flowers are dipped into treatment solution and allowed to dry. Treated flowers were placed into individual petri dishes along with −about 20 adult thrips. The petri dishes were then covered with lids. All test arenas were held under continuous light and a temperature of about 28° C. for duration of the assay. After 3 days, the numbers of live thrips were counted on each flower, and along inner walls of each petri dish. The percent mortality was recorded 72 hours after treatment.

The subject of data set [5] is Southern Armyworm (Spodoptera Eridania). Description: Southern armyworm lima bean plant spray test. The settings on record: 96 h, larvae on sprayed lima bean plants, 4 days after treatment, read-out: mortality in comparison with untreated controls. As for the experimental part: (§3) The active compounds were formulated in cyclohexanone as a 10,000 ppm solution supplied in tubes. The tubes were inserted into an automated electrostatic sprayer equipped with an atomizing nozzle and they served as stock solutions for which lower dilutions were made in 50% acetone:50% water (v/v). A nonionic surfactant (Kinetic®) was included in the solution at a volume of 0.01% (v/v).
(§4) Lima bean plants (variety Sieva) were grown 2 plants to a pot and selected for treatment at the 1st true leaf stage. Test solutions were sprayed onto the foliage by an automated electrostatic plant sprayer equipped with an atomizing spray nozzle. The plants were dried in the sprayer fume hood and then removed from the sprayer. Each pot was placed into perforated plastic bags with a zip closure. About 10 to 11 armyworm larvae were placed into the bag and the bags zipped closed. Test plants were maintained in a growth room at about 25° C. and about 20-40% relative humidity for 4 days, avoiding direct exposure to fluorescent light (24 hour photoperiod) to prevent trapping of heat inside the bags. Mortality and reduced feeding were assessed 4 days after treatment, compared to untreated control plants.

Data set [6] deals with vetch aphid (Megoura viciae). Put plainly: Vetch aphid broad bean leaf disk microtiter test. The settings on record: foliar, 120 h, adult aphids on broad bean leaf disks, 5 days, read-out: mortality in comparison with untreated controls. As for the experimental part: For evaluating control of vetch aphid (Megoura viciae) through contact or systemic means the test unit consisted of 24-well-microtiter plates containing broad bean leaf disks.
The compounds were formulated using a solution containing 75% v/v water and 25% v/v DMSO. Different concentrations of formulated compounds were sprayed onto the leaf disks at 2.5 μl, using a custom built micro atomizer, at two replications.
After application, the leaf disks were air-dried and 5-8 adult aphids placed on the leaf disks inside the microtiter plate wells. The aphids were then allowed to suck on the treated leaf disks and incubated at about 23±1° C. and about 50±5% relative humidity for 5 days. Aphid mortality and fecundity was then visually assessed.

Data set [7] has as its system Tobacco Budworm (Heliothis Virescens). Description: Tobacco budworm cotton plant spray test. The settings on record: 96 h, larvae on sprayed cotton plants, 4 days after treatment, read-out: mortality in comparison with untreated controls. The method, then: as §3
as §4, with “Cotton” for “Lima bean”, “plants” for “plants (variety Sieva)”, “cotyledon” for “1st true leaf”, “budworm” for “armyworm”

For data set [8], the system named is boll weevil (Anthonomus grandis). Put plainly: Boll weevil microtiter plate insect diet test. To be noted: 120 h, egg and larval mortality after 5 days, read-out: mortality in comparison with untreated controls. The method, then:
For evaluating control of boll weevil (Anthonomus grandis) the test unit consisted of 96-well-microtiter plates containing an insect diet and 5-10 A. grandis eggs.
as §2
After application, microtiter plates were incubated at about 25±1° C. and about 75±5% relative humidity for 5 days. Egg and larval mortality was then visually assessed.

In data set [9] the test system is Colorado Potato Beetle (Leptinotarsa Decemlineata). Description: Colorado potato beetle eggplant foliage spray test. To be noted: foliar, 96 h, beetle larvae on sprayed eggplant foliage, 4 days after treatment, read-out: mortality in comparison with untreated controls. As for the experimental part: as §3
Eggplants were grown 2 plants to a pot and were selected for treatment at the 1st true leaf stage. Test solutions were sprayed onto the foliage by an automated electrostatic plant sprayer equipped with an atomizing spray nozzle. The plants were dried in the sprayer fume hood and then removed from the sprayer. The treated foliage was then cut and removed from the pot and placed in a Petri dish lined with moistened filter paper. Five beetle larvae were introduced into each Petri dish and the dish was covered by a Petri dish lid. Petri dishes were maintained in a growth room at about 25° C. and about 20-40% relative humidity for 4 days, avoiding direct exposure to fluorescent light (24 hour photoperiod) to prevent trapping of heat inside the dishes. Mortality and reduced feeding were assessed 4 days after treatment, compared to untreated control plants.

The test system of data set [10] is Silverleaf Whitefly (Bemisia Argentifolii). Put plainly: Silverleaf whitefly cotton plant spray test. The settings on record: 300 ppm; whitefly adults on sprayed cotton plants; 3 days after treatment.
Text: as §3
Cotton plants at the cotyledon stage (one plant per pot) were sprayed by an automated electrostatic plant sprayer equipped with an atomizing spray nozzle. The plants were dried in the sprayer fume hood and then removed from the sprayer. Each pot was placed into a plastic cup and about 10 to 12 whitefly adults (approximately 3-5 days old) were introduced. The insects were collected using an aspirator and a nontoxic Tygon® tubing connected to a barrier pipette tip. The tip, containing the collected insects, was then gently inserted into the soil containing the treated plant, allowing insects to crawl out of the tip to reach the foliage for feeding. Cups were covered with a reusable screened lid. Test plants were maintained in a growth room at about 25° C. and about 20-40% relative humidity for 3 days, avoiding direct exposure to fluorescent light (24 hour photoperiod) to prevent trapping of heat inside the cup. Mortality was assessed 3 days after treatment, compared to untreated control plants.

With `Cc1cc(Cl)cc(C(=O)/N=S2/CCSC2)c1NC(=O)c1cnn(CC(F)(F)F)c1-c1ncccc1Cl` (stereo not shown) [Compound 1-1, N-[4-chloro-2-((Z)-1,3-dithiolan-1-ylidenecarbamoyl)-6-methyl-phenyl]-5-(3-chloro-2-pyridyl)-1-(2,2,2-trifluoroethyl)pyrazole-4-carboxamide], the mortality at 300 ppm in data set [1], in [2], in [4], in [5] and in data set [9] was at least 75% throughout. The mortality at 2500 ppm in [3], in [6], in [7] and in data set [8] was at least 75% throughout.
Take `Cc1cc(Cl)cc(C(=O)N=S(C(C)C)C(C)C)c1NC(=O)c1cnn(CC(F)(F)F)c1-c1ncccc1Cl` [Compound 1-2]: the “mortality in comparison with untreated controls” value in [10] is “at least 75%”.

Broadly, the mortality is the share of the test organisms that died.
